Reference: PubChem BioAssay AID328 (DTP/NCI, 2004)
Where “and” joins values, the source holds several entries; their conditions need not be identical. Equal values may be shown once. Toxic doses and inconclusive results are not listed.

System: BDF1 mice, P388 leukemia ip, median survival T/C
Test: NCI In Vivo Anticancer Drug Screen. Data for tumor model P388 Leukemia (intraperitoneal) in B6D2F1 (BDF1) mice
Conditions: endpoint: median survival time, higher = longer survival
Summary of the method: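 Each value expresses how treatment altered survival: treated-mouse outcome over vehicle-mouse outcome, both groups bearing the transplanted tumour.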

[1] = dose: 100.0 mg/kg/injection, schedule: Q01DX009 (ip), vehicle: saline with Tween-80
[2] = dose: 200.0 mg/kg/injection, schedule: Q01DX009 (ip), vehicle: saline with Tween-80
[3] = dose: 400.0 mg/kg/injection, schedule: Q01DX009 (ip), vehicle: saline with Tween-80
[4] = dose: 100.0 mg/kg/injection, schedule: Q01DX001 (ip), vehicle: saline with Tween-80
[5] = dose: 25.0 mg/kg/injection, schedule: Q01DX009 (ip), vehicle: saline
[6] = dose: 50.0 mg/kg/injection, schedule: Q01DX009 (ip), vehicle: saline
[7] = dose: 100.0 mg/kg/injection, schedule: Q01DX009 (ip), vehicle: saline
[8] = dose: 20.0 mg/kg/injection, schedule: Q04DX003 (ip), vehicle: saline with Tween-80
[9] = dose: 50.0 mg/kg/injection, schedule: Q01DX009 (ip), vehicle: saline with Tween-80
[10] = dose: 50.0 mg/kg/injection, schedule: Q04DX003 (ip), vehicle: Klucel (hydroxypropylcellulose) (HPC)
[11] = dose: 100.0 mg/kg/injection, schedule: Q04DX003 (ip), vehicle: Klucel (hydroxypropylcellulose) (HPC)

## CN(C)CCCNC1=C(Cl)C(=O)c2ccccc2C1=O
dose: 6.25 mg/kg/injection, schedule: Q01DX009 (ip), vehicle: Klucel (hydroxypropylcellulose) (HPC)
  T/C: 114 % of control
dose: 12.5 mg/kg/injection, schedule: Q01DX009 (ip), vehicle: Klucel (hydroxypropylcellulose) (HPC)
  T/C: 109 % of control
dose: 25.0 mg/kg/injection, schedule: Q01DX009 (ip), vehicle: Klucel (hydroxypropylcellulose) (HPC)
  T/C: 116 % of control

## Cc1ccc2oc(-c3ccccc3)c(O)c(=O)c2c1
[1]
  T/C: 95 % of control
[2]
  T/C: 100 % of control
[3]
  T/C: 90 % of control

## NC1=NCC(CSc2ccc(Cl)c(Cl)c2)O1 (stereo unspecified)
dose: 50.0 mg/kg/injection, schedule: Q04DX002 (ip), vehicle: saline + Tween-80 + alcohol
  T/C: 95 % of control
dose: 100.0 mg/kg/injection, schedule: Q04DX002 (ip), vehicle: saline + Tween-80 + alcohol
  T/C: 101 % of control
dose: 200.0 mg/kg/injection, schedule: Q04DX002 (ip), vehicle: saline + Tween-80 + alcohol
  T/C: 95 % of control

## COC(=O)c1c(C)cc(OC(=O)c2c(C)c(Cl)c(O)c(Cl)c2O)cc1O
dose: 1.25 mg/kg/injection, schedule: Q01DX009 (ip), vehicle: Klucel (hydroxypropylcellulose) (HPC)
  T/C: 91 % of control
dose: 2.5 mg/kg/injection, schedule: Q01DX009 (ip), vehicle: Klucel (hydroxypropylcellulose) (HPC)
  T/C: 114 % of control
dose: 5.0 mg/kg/injection, schedule: Q01DX009 (ip), vehicle: Klucel (hydroxypropylcellulose) (HPC)
  T/C: 101 % of control
dose: 10.0 mg/kg/injection, schedule: Q01DX009 (ip), vehicle: Klucel (hydroxypropylcellulose) (HPC)
  T/C: 108 % of control
dose: 20.0 mg/kg/injection, schedule: Q01DX009 (ip), vehicle: Klucel (hydroxypropylcellulose) (HPC)
  T/C: 97 % of control

## CSc1c(C)[nH]c2ccc([N+](=O)[O-])cc12
dose: 25.0 mg/kg/injection, schedule: Q01DX001 (ip), vehicle: saline with Tween-80
  T/C: 95 % of control
dose: 50.0 mg/kg/injection, schedule: Q01DX001 (ip), vehicle: saline with Tween-80
  T/C: 111 % of control
[4]
  T/C: 100 % of control

## C1CC[N+]2(CC1)CCC2
[5]
  T/C: 113 % of control
[6]
  T/C: 109 % of control
[7]
  T/C: 100 % of control

## c1cc[c]([Sb]([c]2ccccc2)[c]2ccccc2)cc1
[8]
  T/C: 120 % of control

## CN/N=C/c1cccnc1
dose: 12.5 mg/kg/injection, schedule: Q01DX009 (ip), vehicle: saline
  T/C: 97 % of control
[5]
  T/C: 95 % of control
[9]
  T/C: 105 % of control
[6]
  T/C: 95 % of control

## CCOC(=O)c1cc([N+](=O)[O-])c(C)s1
dose: 100.0 mg/kg/injection, schedule: Q01DX009 (sc), vehicle: olive oil, sesame oil, peanut oil
  T/C: 100 % of control
dose: 100.0 mg/kg/injection, schedule: Q04DX003 (sc), vehicle: olive oil, sesame oil, peanut oil
  T/C: 95 % of control
dose: 200.0 mg/kg/injection, schedule: Q01DX009 (sc), vehicle: olive oil, sesame oil, peanut oil
  T/C: 91 % of control
dose: 200.0 mg/kg/injection, schedule: Q04DX003 (sc), vehicle: olive oil, sesame oil, peanut oil
  T/C: 95 % of control
dose: 400.0 mg/kg/injection, schedule: Q01DX009 (sc), vehicle: olive oil, sesame oil, peanut oil
  T/C: 100 % of control
dose: 400.0 mg/kg/injection, schedule: Q04DX003 (sc), vehicle: olive oil, sesame oil, peanut oil
  T/C: 100 % of control

## ClC1=C(Cl)C2(Cl)C3(Cl)C(Cl)=C(Cl)C(Cl)(C3c3ccccc3)C2(Cl)C1c1ccccc1 (stereo unspecified)
[1]
  T/C: 95 % of control
dose: 100.0 mg/kg/injection, schedule: Q04DX003 (ip), vehicle: saline sonified
  T/C: 100 % of control
[2]
  T/C: 95 % of control
dose: 200.0 mg/kg/injection, schedule: Q04DX003 (ip), vehicle: saline sonified
  T/C: 104 % of control
[3]
  T/C: 95 % of control
dose: 400.0 mg/kg/injection, schedule: Q04DX003 (ip), vehicle: saline sonified
  T/C: 90 % of control

## CCCCNC(C)(C)C(=O)c1cccs1
[5]
  T/C: 100 % of control
[6]
  T/C: 100 % of control
dose: 50.0 mg/kg/injection, schedule: Q04DX003 (ip), vehicle: saline
  T/C: 100 % of control
[7]
  T/C: 100 % of control
dose: 100.0 mg/kg/injection, schedule: Q04DX003 (ip), vehicle: saline
  T/C: 118 % of control

## CN(C)C(=S)SSC(=S)N(C)C
dose: 25.0 mg/kg/injection, schedule: Q04DX003 (ip), vehicle: Klucel (hydroxypropylcellulose) (HPC)
  T/C: 109 % of control
[10]
  T/C: 118 % of control
dose: 100.0 mg/kg/injection, schedule: Q01DX001 (ip), vehicle: Klucel (hydroxypropylcellulose) (HPC)
  T/C: 100 % of control
[11]
  T/C: 113 % of control
dose: 200.0 mg/kg/injection, schedule: Q01DX001 (ip), vehicle: Klucel (hydroxypropylcellulose) (HPC)
  T/C: 109 % of control
dose: 400.0 mg/kg/injection, schedule: Q01DX001 (ip), vehicle: Klucel (hydroxypropylcellulose) (HPC)
  T/C: 113 % of control

## C=CCNC(=O)C12CC3CC(CC(C3)C1)C2
[9]
  T/C: 93 % of control
[1]
  T/C: 99 % of control
[2]
  T/C: 103 % of control

## Cc1cc(=O)[nH]c(N/N=C/c2ccco2)n1
dose: 12.5 mg/kg/injection, schedule: Q01DX009 (ip), vehicle: gum acacia
  T/C: 108 % of control
dose: 25.0 mg/kg/injection, schedule: Q01DX009 (ip), vehicle: gum acacia
  T/C: 104 % of control
dose: 50.0 mg/kg/injection, schedule: Q01DX009 (ip), vehicle: gum acacia
  T/C: 108 % of control
dose: 100.0 mg/kg/injection, schedule: Q04DX003 (ip), vehicle: gum acacia
  T/C: 109 % of control
dose: 200.0 mg/kg/injection, schedule: Q04DX003 (ip), vehicle: gum acacia
  T/C: 118 % of control

## C=C1CC2(CC(C)(C)CC(C)(C)C2)OC1=O
dose: 100.0 mg/kg/injection, schedule: Q04DX003 (ip), vehicle: saline with Tween-80
  T/C: 97 % of control
dose: 200.0 mg/kg/injection, schedule: Q04DX003 (ip), vehicle: saline with Tween-80
  T/C: 112 % of control
dose: 400.0 mg/kg/injection, schedule: Q04DX003 (ip), vehicle: saline with Tween-80
  T/C: 106 % of control

## OC(COc1ccccc1)CC(O)(C(F)(F)F)C(F)(F)F (stereo unspecified)
[4]
  T/C: 95 % of control
dose: 200.0 mg/kg/injection, schedule: Q01DX001 (ip), vehicle: saline with Tween-80
  T/C: 104 % of control
dose: 400.0 mg/kg/injection, schedule: Q01DX001 (ip), vehicle: saline with Tween-80
  T/C: 104 % of control

## O=C(O)c1c(Cl)c(Cl)c(Cl)c(C(=O)O)c1Cl
dose: 50.0 mg/kg/injection, schedule: Q01DX009 (ip), vehicle: Klucel (hydroxypropylcellulose) (HPC)
  T/C: 104 % of control
[10]
  T/C: 109 % of control
dose: 100.0 mg/kg/injection, schedule: Q01DX009 (ip), vehicle: Klucel (hydroxypropylcellulose) (HPC)
  T/C: 100 % of control
[11]
  T/C: 95 % of control
dose: 200.0 mg/kg/injection, schedule: Q04DX003 (ip), vehicle: Klucel (hydroxypropylcellulose) (HPC)
  T/C: 100 % of control

## C=CCN1/C(=C/C=C\c2sc3ccccc3[n+]2CC=C)Sc2ccccc21
dose: 0.12 mg/kg/injection, schedule: Q01DX009 (ip), vehicle: saline
  T/C: 100 % of control
dose: 0.25 mg/kg/injection, schedule: Q04DX003 (ip), vehicle: Klucel (hydroxypropylcellulose) (HPC)
  T/C: 175 % of control
dose: 0.5 mg/kg/injection, schedule: Q04DX003 (ip), vehicle: Klucel (hydroxypropylcellulose) (HPC)
  T/C: 115 % of control
dose: 1.0 mg/kg/injection, schedule: Q01DX009 (ip), vehicle: saline
  T/C: 154 % of control
dose: 1.0 mg/kg/injection, schedule: Q01DX010 (ip), vehicle: saline
  T/C: 123 % of control
dose: 1.0 mg/kg/injection, schedule: Q04DX003 (ip), vehicle: Klucel (hydroxypropylcellulose) (HPC)
  T/C: 110 % of control
dose: 63.0 micrograms/kg/injection, schedule: Q01DX010 (ip), vehicle: saline
  T/C: 90 % of control
dose: 125.0 micrograms/kg/injection, schedule: Q01DX010 (ip), vehicle: saline
  T/C: 90 % of control
dose: 250.0 micrograms/kg/injection, schedule: Q01DX010 (ip), vehicle: saline
  T/C: 90 % of control

## O=C(Nc1ccc(C2=NCCCN2)cc1)c1ccc(NC(=O)c2ccc(C3=NCCCN3)cc2)cc1
dose: 13.2 mg/kg/injection, schedule: Q04DX003 (ip), vehicle: saline with Tween-80
  T/C: 160 % of control and 168 % of control
[8]
  T/C: 181 % of control and 220 % of control
dose: 30.0 mg/kg/injection, schedule: Q04DX003 (ip), vehicle: saline with Tween-80
  T/C: 263 % of control and 300 % of control

## COCCCNP(=S)(N1CC1)N1CC1
dose: 16.5 mg/kg/injection, schedule: Q04DX003 (ip), vehicle: saline with Tween-80
  T/C: 163 % of control and 195 % of control
dose: 25.0 mg/kg/injection, schedule: Q04DX003 (ip), vehicle: saline with Tween-80
  T/C: 181 % of control and 218 % of control
dose: 37.5 mg/kg/injection, schedule: Q04DX003 (ip), vehicle: saline with Tween-80
  T/C: 104 % of control and 109 % of control

## CN(C)C(=O)Nc1ccc(Cc2ccc(NC(=O)N(C)C)cc2)cc1
[9]
  T/C: 96 % of control
[1]
  T/C: 99 % of control
[2]
  T/C: 108 % of control
[3]
  T/C: 99 % of control
